This data set deals with B16 melanoma. Kind of data set: In vivo tumor inhibiting activity vs. B16 melanoma in B6D2F1 mice. Conditions: 300 mg/kg, q.d. × 1, i.p., day 7.

Description: B16 Melanoma: B6D2F1 mice received i.p. inocula of B16 murine melanoma brei prepared from B16 tumors growing subcutaneously in mice (day 0). On day 1, rumored mice were treated with drugs or vehicle control; the route of drug administration and schedule were selected as appropriate for the study in question. If dosing information for agents was not available, the maximum tolerated dose (MTD) was determined in initial dose finding experiments in non-rumored mice. In a typical experiment, drugs were given at their MTD and 1/2 MTD doses i.p. on a daily×5 schedule.
The mean survival times of all groups were calculated, and results were expressed as mean survival of treated mice/mean survival of control mice (T/C)×100%. A T/C value of 150 means that the mice in the treated group lived 50% longer than those of the control group; this is sometimes referred to as the increase in life space, or ILS value.
Mice that survived for 60 days were considered long term survivors, or cures, in the B16 model. The universally accepted cut-off for activity in this model, which has been used for years by the National Cancer Institute, is T/C=125. Conventional use of B16 over the years has set the following levels of activity: T/C<125, no activity; T/C=125-150, weak activity; T/C=150-200, modest activity; T/C=200-300, high activity; T/C>300, with long term survivors, excellent, curative activity (Goldin et al., 1981).
Statistics were performed on the data using primarily the log rank p-value test.

Regarding `O=P1(N(CCCl)CCCl)NCCCO1` (stereo not shown) [Cytoxan], the “Wt. Ch. (Day 7)” value is -6.6%.
